Assays:
[1] = biological target: T1, recombinant human A3 adenosine receptors (Homo sapiens, UniProt P0DMS8); experiment: Radioligand binding, human A3 receptor ([125I]-AB-MECA), incl. one-point binding at 10 μM; conditions: read-out: Percent (%) Inhibition at 10 μM Antagonist, A3
T1 construct: expressed in transfected cells; host or cells: HEK 293
T1 sequence (P0DMS8 1-318): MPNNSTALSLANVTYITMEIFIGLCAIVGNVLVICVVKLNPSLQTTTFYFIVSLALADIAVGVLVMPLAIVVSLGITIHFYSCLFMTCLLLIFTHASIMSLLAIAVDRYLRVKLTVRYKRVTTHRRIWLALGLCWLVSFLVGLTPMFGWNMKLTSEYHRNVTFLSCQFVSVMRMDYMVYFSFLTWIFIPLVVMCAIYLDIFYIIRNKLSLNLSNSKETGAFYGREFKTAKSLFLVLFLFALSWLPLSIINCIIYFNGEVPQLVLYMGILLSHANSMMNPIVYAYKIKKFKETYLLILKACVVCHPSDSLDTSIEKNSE

[2] = test system: open-chest, barbital-anesthetized dogs; experiment: Protocol III (reperfusion): 60 minutes occlusion and 3 hours reperfusion, drug from 10 minutes before release of occlusion, dogs; type: in vivo, dog
Experimental: The studies were performed in open-chest, barbital-anesthetized dogs instrumented to measure heart rate, blood pressure, left ventricular pressure, and regional myocardial blood flow (radioactive microspheres). A mechanical occluder was placed around a proximal portion of the left anterior descending coronary artery to produce ischemia and reperfusion. At the end of the experiments, infarct size was determined-by histochemical staining (patent blue dye and triphenyltetrazolium) and expressed as a percentage of the region at risk or as a percentage of the entire left ventricle.
In the reperfusion protocol (see FIG. 3, protocol III), the dogs were subjected to 60 minutes of coronary artery occlusion followed by three hours of reperfusion. […] The antagonists were administered at a dose of 1 mg/kg i.v. bolus followed by an infusion of 10 μg/kg/min for one hour.

[3] = biological target: T2, recombinant canine A1 adenosine receptors (Canis lupus familiaris, UniProt P11616); experiment: Radioligand competition binding, canine A1 receptor (3H-CPX), transfected HEK 293 membranes
T2 construct: expressed in transfected cells
T2 sequence (P11616 1-326): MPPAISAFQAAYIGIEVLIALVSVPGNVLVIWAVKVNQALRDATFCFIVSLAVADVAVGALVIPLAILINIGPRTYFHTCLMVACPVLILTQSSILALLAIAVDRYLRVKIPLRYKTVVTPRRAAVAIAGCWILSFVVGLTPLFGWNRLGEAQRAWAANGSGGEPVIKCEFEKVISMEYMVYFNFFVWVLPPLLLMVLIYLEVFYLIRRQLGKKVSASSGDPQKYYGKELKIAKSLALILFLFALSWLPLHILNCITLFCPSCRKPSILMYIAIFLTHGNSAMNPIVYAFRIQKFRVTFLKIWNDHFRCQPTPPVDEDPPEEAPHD
Experimental: Membranes (40-70 μg membrane protein), radioligands, and varying concentrations of competing ligands were incubated in triplicate in 0.1 ml buffer HE plus 2 units/mL adenosine deaminase for 2.5 hours at 21° C. The radioligands used for competitive binding assays were: [^3H]-8-cyclopentyl-1,3-dipropyxanthine ([^3H]-DPCPX) (NEN, Boston, Mass.) for A1 and A2b adenosine receptors, [^3H]-4-(2-[7-amino-2-(furyl)(1,2,4)triazole(2,3-a)(1,3,5)triazin-5-ylaminoethyly)phenol ([^3H] ZM241385) for A2a adenosine receptors (Tocris, Bristol, UK), and [^125Iodine]-labeled N6-(4-aminobenzyl)-9-(5-(methylcarbonyl)-β-D-ribofuranosyl) adenine ([^125I]-AB-MECA) or [^3H]-R-N^6-phenylisopropyladenosine (H^3R]-R-PIA) for A3 adenosine receptors (both from NEN, Boston, Mass.). Nonspecific binding was measured in the presence of 10 μM 5′N ethylcarboxamidoadenosine (NECA, from RBI-Sigma, Natick, Mass.) for A1 and A2b receptors, or 10 μM xanthine amino congener (XAC, from RBI-Sigma, Natick, Mass.) for A2a receptors. Binding assays were terminated by filtration over Whatman GF/C glass fiber filters using a BRANDEL cell harvester (Gaithersburg, Md.).

[4] = biological target: T3, recombinant rat A2b adenosine receptors (Rattus norvegicus, UniProt P29276); experiment: FLIPR calcium functional assay, rat A2b receptor in HEK-293 cells (NECA); type: cell-based; conditions: HEK293 cells
T3 construct: expressed in transfected cells; host or cells: HEK-293
T3 sequence (P29276 1-332): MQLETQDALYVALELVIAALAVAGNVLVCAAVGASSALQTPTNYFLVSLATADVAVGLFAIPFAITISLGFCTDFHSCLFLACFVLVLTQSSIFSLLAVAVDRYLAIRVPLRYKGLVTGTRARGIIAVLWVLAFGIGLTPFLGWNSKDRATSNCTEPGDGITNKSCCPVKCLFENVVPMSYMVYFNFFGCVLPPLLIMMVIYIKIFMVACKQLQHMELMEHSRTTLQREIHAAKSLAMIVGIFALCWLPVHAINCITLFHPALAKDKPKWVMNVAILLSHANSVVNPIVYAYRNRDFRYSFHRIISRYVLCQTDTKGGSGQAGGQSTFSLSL
Experimental: FIG. 10 depicts FLIPR assay of BG9928 with recombinant […] A2b adenosine receptors stably expressed in HEK-293 cells. FLIPR assays measuring the fraction of control response observed with 10, 100, and 300 nM BG9928 in HEK-293 cells expressing rat A2b adenosine receptors in the presence of increasing concentrations of the agonist (NECA) (top graph). The bottom graph is a Schild analysis of the data presented in the top graph.
Cells were seeded into 96-well tissue culture plates with black walls and clear bottoms, and cultured to an […] confluent monolayer. Without removing the media, an equal volume of dye (from calcium assay kit purchased from Molecular Devices) was added. Cell plates were incubated for 1 hour at 37° C. and were then transferred to the-FLIPR unit (Molecular Devices). […]
The FLIPR integrates an argon laser excitation source, a 96-well pipettor, and a detection system utilizing a CCD (Charged Coupled Device) imaging camera. Fluorescence emissions from the 96 wells were monitored simultaneously at excitation and emission wavelength of 488 and 520 nm, respectively. Fluorescence data were collected at 0.1-sec intervals before and after simultaneous rapid addition of compounds to the 96-well plate. Results were read as relative fluorescence units (RFU). […]

SMILES: CCCn1c(=O)c2[nH]c(C34CCC(CCC(=O)O)(CC3)CC4)nc2n(CCC)c1=O [BG 9928, 3-[4-(2,6-dioxo-1,3-dipropyl-2,3,6,7-tetrahydro-1H-purin-8-yl)-bicyclo[2.2.2]oct-1-yl]-propionic acid]
- inhibition at 10 µM [1]: 30%
- Infarct size expressed as a percentage of the entire left ventricle, in words [2]: a significant reduction in infarct size was not observed
- Relationship between infarct size and collateral blood flow compared to control group [2]: shifted downward
- Reduction in infarct size (percentage of the risk region) ([2]; 1 mg/kg i.v. bolus + 10 μg/kg/min for one hour from 10 minutes before release of occlusion): 44%
- Infarct size expressed as a percentage of the risk region, in words ([2]; administration during the early phase of reperfusion): reduced significantly
- Ki [3]: 28.9 ± 4.1 nM
- pA2 ([4]; rat A2b, Schild analysis): 6.59
- Kb ([4]; rat, null methodology): 257 nM

From patent publication US20050203065A1, “Method of treating ischemia reperfusion injury using adenosine receptor antagonists” (priority 2002, published 2005)
